The record followed here is ChEMBL document CHEMBL5143590, “Dihydropyrimidinone imidazoles as unique structural antibacterial agents for drug-resistant gram-negative pathogens” (Eur J Med Chem, 2022).

Assay type in all cases: functional
One test relates to Candida albicans. Description: Antibacterial activity against Candida albicans 90023 assessed as inhibition of bacterial growth.
Test [1] relates to Pseudomonas aeruginosa. Description: Antibacterial activity against Pseudomonas aeruginosa 27853 assessed as inhibition of bacterial growth by two fold serial dilution method.
The subject of test [2] is Staphylococcus aureus. Put plainly: Antibacterial activity against Staphylococcus aureus assessed as inhibition of bacterial growth by two fold serial dilution method.
In test [3] the test system is Pseudomonas aeruginosa. Put plainly: Antibacterial activity against Pseudomonas aeruginosa assessed as inhibition of bacterial growth by two fold serial dilution method.
The test system of test [4] is Staphylococcus aureus. Put plainly: Antibacterial activity against Staphylococcus aureus 25923 assessed as inhibition of bacterial growth by two fold serial dilution method.
In a further test the test system is Enterococcus faecalis. Description: Antibacterial activity against Enterococcus faecalis assessed as inhibition of bacterial growth by two fold serial dilution method.
Test [5] relates to Staphylococcus aureus. Description: Antibacterial activity against Staphylococcus aureus 29213 assessed as inhibition of bacterial growth by two fold serial dilution method.
Test [6] relates to Escherichia coli. Description: Antibacterial activity against Escherichia coli 25922 assessed as inhibition of bacterial growth by two fold serial dilution method.
Test [7] deals with Acinetobacter baumannii. Put plainly: Antibacterial activity against Acinetobacter baumannii assessed as inhibition of bacterial growth by two fold serial dilution method.
Test [8] relates to Klebsiella pneumoniae. Description: Antibacterial activity against Klebsiella pneumoniae assessed as inhibition of bacterial growth by two fold serial dilution method.
Test [9] concerns Staphylococcus aureus. Put plainly: Antibacterial activity against methicillin-resistant Staphylococcus aureus N315 assessed as inhibition of bacterial growth by two fold serial dilution method.
Test [10] relates to Escherichia coli. Put plainly: Antibacterial activity against Escherichia coli assessed as inhibition of bacterial growth by two fold serial dilution method.
Test [11] relates to Klebsiella pneumoniae. Description: Bactericidal activity against Klebsiella pneumoniae assessed as fold increase in MIC value after 16 passages by two fold serial dilution method.
The subject of test [12] is Acinetobacter baumannii. Description: Bactericidal activity against Acinetobacter baumannii assessed as fold increase in MIC value after 16 passages by two fold serial dilution method.

In brackets after ≈: the same amount, converted by molar mass.

The term MIC denotes the smallest concentration in the dilution series that meets the test's criterion for growth inhibition. In the case of `O=c1nc(N(Cc2ccc(Cl)c(Cl)c2)CC(O)(Cn2cncn2)c2ccc(F)cc2F)c(F)c[nH]1` (stereo not drawn), the MIC in the test with Candida albicans turned out to be 8 µM (≈ 4.2 µg/mL).

As to `CCCCc1nc(Cl)c(C2NC(=O)NC(C)=C2C(=O)OCC)n1S(=O)(=O)c1ccccc1` (stereo not drawn), the MIC in the test with Pseudomonas aeruginosa [1] amounted to 64 µg/mL (≈ 133 µM); in the test on Staphylococcus aureus [2], 64 µg/mL (≈ 133 µM); in the test on Pseudomonas aeruginosa [3], 64 µg/mL (≈ 133 µM); in the test on Staphylococcus aureus [4], 128 µg/mL (≈ 266 µM); with Enterococcus faecalis, 64 µg/mL (≈ 133 µM); in the test with Staphylococcus aureus [5], 256 µg/mL (≈ 532 µM). The MIC with Escherichia coli [6] was 128 µg/mL (≈ 266 µM); in the test on Acinetobacter baumannii [7], 64 µg/mL (≈ 133 µM); in the test with Klebsiella pneumoniae [8], 128 µg/mL (≈ 266 µM); with Staphylococcus aureus [9], 128 µg/mL (≈ 266 µM); with Escherichia coli [10] it was 64 µg/mL (≈ 133 µM).

With `CCn1cc(C(=O)O)c(=O)c2cc(F)c(N3CCNCC3)cc21` [NORFLOXACIN], the MIC with Pseudomonas aeruginosa [1] amounted to 0.5 µg/mL (≈ 1.57 µM); in the test on Staphylococcus aureus [2], 2 µg/mL (≈ 6.26 µM); with Pseudomonas aeruginosa [3], 2 µg/mL (≈ 6.26 µM); with Staphylococcus aureus [4], 1 µg/mL (≈ 3.13 µM); in the test with Enterococcus faecalis it was 4 µg/mL (≈ 12.5 µM); in the test on Staphylococcus aureus [5] it was 2 µg/mL (≈ 6.26 µM). Further, the MIC amounted to 8 µg/mL (≈ 25.1 µM) in the test with Escherichia coli [6]; 8 µg/mL (≈ 25.1 µM) in the test on Acinetobacter baumannii [7]; 4 µg/mL (≈ 12.5 µM) in the test on Klebsiella pneumoniae [8]; 16 µg/mL (≈ 50.1 µM) with Staphylococcus aureus [9]; 16 µg/mL (≈ 50.1 µM) in the test with Escherichia coli [10]. For the same compound, the “fold change (FC)” value with Klebsiella pneumoniae [11] and with Acinetobacter baumannii [12] was 32 each time.

On to `C#CCn1c(CCCC)nc(Cl)c1C1NC(=O)NC(C)=C1C(=O)OCC` (stereo not drawn), for which the minimal inhibitory concentration (MIC) with Pseudomonas aeruginosa [1] amounted to 128 µg/mL (≈ 338 µM); in the test on Staphylococcus aureus [2], 64 µg/mL (≈ 169 µM); with Pseudomonas aeruginosa [3], 64 µg/mL (≈ 169 µM); in the test with Staphylococcus aureus [4], 128 µg/mL (≈ 338 µM); in the test on Enterococcus faecalis, 64 µg/mL (≈ 169 µM); in the test with Staphylococcus aureus [5] it was 64 µg/mL (≈ 169 µM). Besides, the minimum inhibitory concentration (MIC) was determined as 64 µg/mL (≈ 169 µM) in the test on Escherichia coli [6]; 64 µg/mL (≈ 169 µM) in the test with Acinetobacter baumannii [7]; 32 µg/mL (≈ 84.5 µM) in the test on Klebsiella pneumoniae [8]; 64 µg/mL (≈ 169 µM) in the test on Staphylococcus aureus [9]; 128 µg/mL (≈ 338 µM) in the test on Escherichia coli [10].

`CCCCc1nc(Cl)c(C2NC(=O)NC(C)=C2C(=O)OCC)n1S(=O)(=O)c1ccc(C(F)(F)F)cc1` (stereo not drawn): the minimal inhibitory concentration (MIC) in the test with Pseudomonas aeruginosa [1] amounted to 64 µg/mL (≈ 117 µM); in the test on Staphylococcus aureus [2], 64 µg/mL (≈ 117 µM); in the test on Pseudomonas aeruginosa [3], 32 µg/mL (≈ 58.3 µM); with Staphylococcus aureus [4] it was 32 µg/mL (≈ 58.3 µM); in the test on Enterococcus faecalis it was 16 µg/mL (≈ 29.1 µM); in the test with Staphylococcus aureus [5] it was 8 µg/mL (≈ 14.6 µM). For the same compound, the MIC amounted to 64 µg/mL (≈ 117 µM) with Escherichia coli [6]; 16 µg/mL (≈ 29.1 µM) in the test with Acinetobacter baumannii [7]; 64 µg/mL (≈ 117 µM) in the test with Klebsiella pneumoniae [8]; 8 µg/mL (≈ 14.6 µM) with Staphylococcus aureus [9]; 32 µg/mL (≈ 58.3 µM) in the test with Escherichia coli [10].

On to `CCCCc1nc(Cl)c(C2NC(=O)NC(C)=C2C(=O)OCC)n1Cc1cccc(Cl)c1` (stereo not drawn), for which the minimum inhibitory concentration (MIC) was 64 µg/mL (≈ 138 µM) in the test with Pseudomonas aeruginosa [1]; 64 µg/mL (≈ 138 µM) with Staphylococcus aureus [2]; 128 µg/mL (≈ 275 µM) in the test on Pseudomonas aeruginosa [3]; 32 µg/mL (≈ 68.8 µM) in the test with Staphylococcus aureus [4]; 64 µg/mL (≈ 138 µM) with Enterococcus faecalis; 64 µg/mL (≈ 138 µM) in the test with Staphylococcus aureus [5]. In addition, the minimum inhibitory concentration (MIC) in the test on Escherichia coli [6] turned out to be 32 µg/mL (≈ 68.8 µM); with Acinetobacter baumannii [7] it was 32 µg/mL (≈ 68.8 µM); in the test on Klebsiella pneumoniae [8], 32 µg/mL (≈ 68.8 µM); in the test with Staphylococcus aureus [9], 64 µg/mL (≈ 138 µM); with Escherichia coli [10], 64 µg/mL (≈ 138 µM).
